Results as given in US7867731B2, “HX2004-6 polypeptide expressed in cancerous cells” (Novartis Vaccines and Diagnostics, Inc., priority 1998, dated 2011).

How the values were obtained:
Assay type in all cases: cell-based, human
TTK mRNA = experiment: Antisense depletion of TTK mRNA after transfection, quantitated by real-time PCR; details: SW620 cells, oligonucleotide final concentration 30 nM, normalized to beta-actin
Protocol: A number of different oligonucleotides complementary to TTK mRNA were designed as potential antisense oligonucleotides, and tested for their ability to suppress expression of TTK. The ability of each designed antisense oligonucleotide to inhibit gene expression was tested through transfection into SW620 colon colorectal carcinoma cells. For each transfection mixture, a carrier molecule, preferably a lipitoid or cholesteroid, was prepared to a working concentration of 0.5 mM in water, sonicated to yield a uniform solution, and filtered through a 0.45 μm PVDF membrane. The antisense or control oligonucleotide was then prepared to a working concentration of 100 μM in sterile Millipore water. The oligonucleotide was further diluted in OptiME™ (Gibco/BRL), in a microfuge tube, to 2 μM, or approximately 20 μg oligo/ml of OptiMEM™. […]
The level of target mRNA (TTK) in the transfected cells was quantitated in the cancer cell lines using the Roche LightCycler™ real-time PCR machine. […]
An amplification mixture was prepared by mixing in the following order: 1×PCR buffer II, 3 mM MgCl2, 140 μM each dNTP, 0.175 pmol each oligo, 1:50,000 dil of SYBR® Green, 0.25 mg/ml BSA, 1 unit Taq polymerase, and H2O to 20 μl. […] As double stranded PCR product is produced during amplification, the fluorescence from SYBR®) Green increases. […]

SW620 cells [1] = experiment: Soft agar colony formation assay; details: 2000 cells per well, oligo added without delivery vehicle
Protocol: The effect of TTK expression upon colony formation was tested in a soft agar assay. Soft agar assays were conducted by first establishing a bottom layer of 2 ml of 0.6% agar in media plated fresh within a few hours of layering on the cells. The cell layer was formed on the bottom layer by removing cells transfected as described above from plates using 0.05% trypsin and washing twice in media. The cells were counted in a Coulter counter, and resuspended to 10^6 per ml in media. 10 μl aliquots are placed with media in 96-well plates (to check counting with WST1), or diluted further for soft agar assay. 2000 cells are plated in 800 μl 0.4% agar in duplicate wells above 0.6% agar bottom layer. After the cell layer agar solidifies, 2 ml of media is dribbled on top and antisense or reverse control oligo is added without delivery vehicles. Fresh media and oligos are added every 3-4 days. Colonies are formed in 10 days to 3 weeks. Fields of colonies were counted by eye. Wst-1 metabolism values can be used to compensate for small differences in starting cell number. Larger fields can be scanned for visual record of differences.

SW620 cells [2] = experiment: Cell death by LDH release (Cytotoxicity Detection Kit)
Protocol: SW620 cells were transfected as described for proliferation assays. For cytotoxic effect in the presence of cisplatin (cis), the same protocol was followed but cells were left in the presence of 2 μM drug. Each day, cytotoxicity was monitored by measuring the amount of LDH enzyme released in the medium due to membrane damage. The activity of LDH was measured using the Cytotoxicity Detection Kit from Roche Molecular Biochemicals. The data is provided as a ratio of LDH released in the medium vs. the total LDH present in the well at the same time point and treatment (rLDH/tLDH).

Substance	depletion of TTK RNA in the transfection assays (TTK mRNA)	colony size and number compared to reverse control (79-9RC) or control oligonucleotides (52-3AS, 52-3RC) (SW620 cells [1])	sensitization of the cells to treatment by cisplatin (SW620 cells [2]; 2 μM cisplatin, rLDH/tLDH)	cell death compared to control oligo (rLDH/tLDH) (SW620 cells [2]; day 3)
79-5AS (antisense GGGACTCTTCCAAATGGGCATGACT; chemistry not given here) [Oligo 79-5AS]	effectively deplete TTK RNA	–	–	–
79-9AS (antisense TCCAGTAACTCTTGCGTTCCCATGG; chemistry not given here) [Oligo 79-9AS]	effectively deplete TTK RNA	decreased colony size and number	–	–
Oligo 79-9AS: TTK antisense oligonucleotide TCCAGTAACTCTTGCGTTCCCATGG (SEQ ID NO:6) (chemistry not given here)	–	–	does not sensitize the cells to treatment by cisplatin at a detectable level	increased death
